For orientation: bioavailability means the share of a dose that reaches the circulation, judged against a reference dose that is usually intravenous. What is called logP is a log measure of how a compound divides between an organic and an aqueous phase. Lower therefore signals a more hydrophilic compound. As usually defined, the pKa is the pH at which an ionisable group is half protonated.

Where a name gives a salt, the structure may show the parent alone.

For data set [1] the following is noted: Wu-Benet, 2005; cited from earlier work.
Data set [2] can be described thus: Doxepin plasma concentration after a 3 mg capsule in humans. The format is in vivo, human. How it is done:
An estimate of the doxepin plasma concentrations associated with the initiation of sleep was obtained by combining data from multiple studies.
In a separate study, in humans averaging about 70 kg, receiving a 3 mg capsule comprising doxepin hydrochloride, lactose monohydrate fast-flow, sodium lauryl sulfate and magnesium stearate, the average plasma concentration at 60 minutes was approximately 0.1 ng/mL.
Without being limited, it is believed that the doxepin plasma concentration achieved approximately 1 hour after a 3 mg dose is sufficient for sleep initiation. The conclusion is that doxepin plasma concentrations of 0.1 ng/mL or greater were associated with initiation of sleep.

The test system of data set [3] is human subjects. In words: Sleep onset after a 3 mg doxepin hydrochloride capsule in human subjects. Conditions: human subjects averaging about 70 kg. It counts as in vivo.
A short description of data set [4]: Measured bioavailability used for the simulation. The settings on record: in vivo.
Data set [5] is described as follows: Measured physicochemical parameters (logP, pKa) used for the simulation.

As to `CN(C)CCC=C1c2ccccc2COc2ccccc21` (mixture of isomers) [doxepin hydrochloride], in data set [1], the “Biopharmaceutic Classification System class” value is “Class One” and the “solubility (Biopharmaceutic Classification System)” value is given as “high solubility”. Also, in data set [2] (human, plasma, oral, humans averaging about 70 kg, 3 mg capsule, separate study), the concentration at 60 min was around 0.1 ng/mL. Moreover, in data set [3] (3 mg capsule), the “sleep onset compared with a placebo dose” value is reported as “significantly earlier than with a placebo dose”. The “time of sleep onset after dosing” value in data set [3] (3 mg capsule (doxepin hydrochloride, lactose monohydrate fast-flow, sodium lauryl sulfate, magnesium stearate)) was “about 60 minutes”.
`CN(C)CCC=C1c2ccccc2COc2ccccc21` (mixture of isomers) [doxepin]: in data set [2] (estimate from combining data from multiple studies), the “doxepin plasma concentration associated with initiation of sleep” value was at least 0.1 ng/mL. Further, the bioavailability in data set [4] was 29%. Further, in data set [5], the logP is on record as 4.13 and the pKa is 8.96.

The record behind these values is patent US20110318412A1, “LOW DOSE DOXEPIN FORMULATIONS, INCLUDING BUCCAL, SUBLINGUAL AND FASTMELT FORMULATIONS, AND USES OF THE SAME TO TREAT INSOMNIA” (Somaxon Pharmaceuticals, Inc., priority 2006, published 2011).
